From US7820625B2, “UV-induced dermatitis inhibitor and atopic dermatitis inhibitor” (National Institute of Advanced Industrial Science and …, priority 2005, dated 2010)
Where a SMILES comes first, the peptide text is derived from it. Where no end group is shown, it is not given here.

Legend:
[1] = system: BALB/c mice (DNFB-induced dermatitis, auricle skin); assay: DNFB-induced dermatitis in mouse earlobes; amount of water evaporation (Tewameter TM300) to evaluate the barrier function of keratin; format: in vivo
Procedure: A 1 mg portion of glycylprolylisoleucylglycylserine (SEQ ID NO: 6) (hereinafter, also referred to as “GPIGS”) (manufactured by AMERICAN PEPTIDE COMPANY, Inc., lot. CC-09-119) was weighed. This GPIGS [SEQ ID NO: 6] was dissolved by the addition of 300 μl of Otsuka distilled water for injection (manufactured by Otsuka Pharmaceutical Co., Ltd., cat. 322134). Then, this solution was mixed with 200 μl of propylene glycol (manufactured by Wako Pure Chemical Industries, Ltd., cat. 161-05006) and 500 μl of ethanol (manufactured by Wako Pure Chemical Industries, Ltd., cat. 057-00456) to prepare 1 mg/ml GPIGS [SEQ ID NO: 6] solution (1).
Seven-week-old mice (produced by Japan SLC. Inc, BALB/c line) were raised for 1 week and acclimatized.
A 10 μl portion (14.5 mg) of […] (manufactured by NACALAI TESQUE, INC., cat. 135-12) (DNFB) was added to 9.7 ml of (acetone:olive oil=3:1) solution to prepare 1.5 mg/ml DNFB solution.
A 25 μl portion of 1.5 mg/ml DNFB solution was applied five times (once a week) to each of the front and back sides of the left and right earlobes of the BALB/c mice (8-week-old).
From one day after the 4th DNFB solution application, 25 μl of the drug solution was applied once a day to each of the front and back sides of the left and right earlobes (in the 5th DNFB solution application, the GPIGS [SEQ ID NO: 6] solution (1) was applied 1 hour before DNFB application). Forty-eight hours after the 5th DNFB solution application, an amount of water evaporation in the auricle surfaces was measured with Tewameter TM300 (manufactured by Courage+Khazaka electronic GmbH.) to evaluate the barrier function of keratin (1-3) (the present invention).
The barrier function of keratin was also evaluated on (1-1) wherein the same procedures aforementioned were performed except that a (acetone:olive oil=3:1) solution was applied instead of the DNFB solution and (1-2) (Comparative Example) wherein the same procedures aforementioned were performed except that a solution containing the GPIGS [SEQ ID NO: 6] solution (1) except for GPIGS [SEQ ID NO: 6] was used.
All the experiments were conducted using five mice.
The data in FIG. 1 are indicated with mean±standard deviation (mean±S.E.). Statistical analysis was conducted by Student's t-test (Stat View J-4.02, Abacus Concepts Inc.). A significant level less than 5% (p<0.05) means that a significant difference is present.

[2] = system: Hos:HR-1 mice (UVB-irradiated back skin); assay: UVB-irradiated mouse back skin; amount of water evaporation (Tewameter TM300) to evaluate the barrier function of keratin; format: in vivo; conditions: for rate of increase in the total amount of water evaporation from the 1st day to the 10th day after UVB irradiation: 1 mg/ml ointment, increase of Comparative Example (5-2) over non-irradiated (5-1) defined as 100%
Procedure: A GPIGS [SEQ ID NO: 6] solution (1) was prepared in the same way as in Example 1.
Mice used were 10-week-old mice (produced by Japan SLC. Inc, Hos:HR-1 line) raised for 1 week or longer in the breeding room of National Institute of Advanced Industrial Science and Technology and acclimatized.
The backs of the mice fixed under pentobarbital anesthesia were irradiated with 150 mJ/cm^2 UVB for 5 days (once a day) to cause skin damage. A 100 μl portion of the drug solution was applied once a day immediately after UVB irradiation to each of the skin surfaces of the backs. An amount of water evaporation in the skin surfaces of the backs was measured with Tewameter TM300 (manufactured by Courage+Khazaka electronic GmbH.) to evaluate the barrier function of keratin.
All the experiments were conducted using four mice.
The data in FIG. 2 are indicated with mean±standard deviation (mean±S.E.). Statistical analysis was conducted by Student's t-test (Stat View J-4.02, Abacus Concepts Inc.). A significant level less than 5% (p<0.05) means that a significant difference is present. In this context, the open triangle denotes (2-1) without UVB irradiation; x denotes (2-2) (Comparative Example) using a solution containing the GPIGS [SEQ ID NO: 6] solution (1) except for GPIGS [SEQ ID NO: 6]; and the solid diamond denotes Example of the present application (2-3).

[3] = 1 mg/ml solution (water/propylene glycol/ethanol), 25 μl once a day on earlobes, 48 h after 5th DNFB application, vehicle control 13.11 (GPIGS experiment), 9.29 (IGS experiment)

Molecule | amount of water evaporation [1, 3] [g/m^2/hr] | rate of increase in the total amount of water evaporation from the 1st day to the 10th day after UVB irradiation [2] [%] | amount of water evaporation ([1]; 1 mg/ml ointment (3-3), base ointment control 8.42, no DNFB 1.83) [g/m^2/hr] | amount of water evaporation ([1]; 3 mg/ml ointment (3-4), base ointment control 8.42, no DNFB 1.83) [g/m^2/hr] | barrier function of keratin compared with Example 1 ([1]; 3 mg/ml solution, otherwise as Example 1) | dermatitis of each mouse ([1]; ointment (10 mg GPIGS with Hiviswako 104, propylene glycol, diisopropanolamine, gentamycin, water), mice treated as in Examples 1 and 2) | amount of water evaporation compared with Comparative Example (2-2) ([2]; 1 mg/ml solution, 100 μl once a day after 150 mJ/cm^2 UVB, following the fourth day after UVB irradiation)
CC[C@H](C)[C@H](N)C(=O)NCC(=O)N[C@@H](CO)C(=O)O [IGS, isoleucylglycylserine] (H-Ile-Gly-Ser-OH) | 5.57 | 55.4 | – | – | – | – | –
GPIGS [GPIGS, glycylprolylisoleucylglycylserine] | 11.30 | 82.1 | 5.23 | 3.89 | more excellent barrier function of keratin | improvement | significantly lower
